According to patent publication US20110293756A1, “PREVENTIVES OR REMEDIES FOR TUMOR OR HUMAN PAPILLOMAVIRAL DISEASE” (priority 2001, published 2011):

How the values were obtained:
[1] = tested on: cervical carcinoma in situ (CIS); assay: Clinical test in cervical carcinoma in situ (CIS), stage 0; format: in vivo, human; settings: 2 to 6 weeks of administration; extracts 2 g/day, folic acid 15 mg/day; group A 21, B 15 (8+7), C 8, D 12, E 11 cases; control 0 of 42
Description: A method for the clinical testing was performed in the manner described below under sufficient informed consent. Colposcopy was performed for patients who had been diagnosed to be class IV or V based on the cytobiosis of cervical cancer, portions of their lesions were subjected to biopsy, and then administration of various pharmaceutical preparations was immediately started. Test groups are as shown below. Each group was observed. […]

[2] = tested on: cervical dysplasia (CIN1, CIN2); assay: Clinical test in cervical dysplasia CIN1 / CIN2; format: in vivo, human; settings: 2 months after administration; extracts 2 g/day, folic acid 15 mg/day; Yokunin 8, hot water 3, ethanol 3, folic acid 5, enzyme/fermentation 6, with folic acid 8 cases; untreated 0 of 15
Description: According to the CIN classification, CIN1 and CIN2 correspond to mild dysplasia and moderate dysplasia, respectively, and CIN3 includes severe dysplasia and the above CIS. Here, the clinical effect of the pharmaceutical preparations of the present invention against the CIN1 and CIN2 is presented.
A test was conducted for cases, which had been diagnosed to be class III by cytological diagnosis and as having mild dysplasia or moderate dysplasia by histological diagnosis, and carefully followed up without conization, and for which informed consent had been obtained.
Further, the enzyme extract of Coix seeds with husks (3 cases)- or the fermentation extract (3 cases) (daily dose of 2 g of the respective extract ingredients)-administered group (6 cases), the enzyme extract of Coix seeds with husks (4 cases) or the fermentation extract (4 cases) (respective daily dose of 2 g as the extract ingredient) compounded with folic acid (15 mg/day)-administered group (8 cases) were observed. […] Test groups are as shown below. Each group was observed.
Each pharmaceutical preparation was administered over a long period (1 year), and cytological diagnosis and colposcopy were performed every 3 to 4 months.

[3] = tested on: koilocytic atypia, mild dysplasia and moderate dysplasia; settings: 5 mg/day, 331 patients, six months; cited from earlier work
CIN I or CIN II = settings: 10 mg/day, 154 cases, 6 months; cited from earlier work

For `Nc1nc2ncc(CNc3ccc(C(=O)N[C@@H](CCC(=O)O)C(=O)O)cc3)nc2c(=O)[nH]1` [folic acid], the “cases showing disappearance of carcinoma in situ in postoperative histological tests” value [1] is given as “none of the cases”, the “cases showing improvement in both cytological diagnosis and colposcopy findings” value [2] is given as “None of the cases” and the “improving effect compared with the group orally administered with placebo” value [3] is given as “no difference was found”. For the same molecule, the “effect compared with the group orally administered with placebo” value (CIN I or CIN II) was “no difference was also found”.
